In US8721858B2, “Non-focusing tracers for indirect detection in electrophoretic displacement techniques” (The Board of Trustees of the Leland Stanford Junior …, priority 2010, dated 2014):

Experiments:
[1] = limiting fully ionized mobility, value = mobility × 10^9; cited from earlier work
[2] = Estimated effective mobilities in ITP zones of FIGS. 4a-b; conditions: % of −17.8×10^−9 m^2V^−1s^−1
Description: We used numerical codes to predict the composition, pH, and fluorescence intensity of each zone for assay design and theory validation. Transient and steady state problems can be simulated with programs such as Simul 5, or a MATLAB-based program developed in-house. For fast solution of most problems, however, we used a steady-state solver written in-house based on the RFQ method described by Beckers and Everaerts. This code adjusts ion mobility and pKa for ionic strength based on the Davies equation and Robinson-Stokes model, respectively. See Table 1 above for the limiting electrophoretic mobilities and pKas of example chemicals used in simulations.
Further details relating to FIGS. 4a-b are as follows. FIGS. 4a-b show detection of HEPES and MOPS with a counterionic (FIG. 4a) and overspeeding coionic (FIG. 4b) fluorescent non-focusing tracer. Top panes are ratios of zone intensities IA/IL, and bottom panes are corresponding images. The zones are, from left to right, TE (tricine), HEPES, MOPS, and LE (MES). The concentration of the tracer increases in high mobility zones. The mobility of the coionic tracer Alexa Fluor 488 (AF488) is close to that of MES, so it is especially sensitive in this region. […]. […] For the left plots, the LE contains 50 μM R6G. For the right plots, the TE contains 5 μM AF488. […].
As discussed in Theory, the sensitivity of counterspeeders tends to be approximately uniform for all analyte mobilities. In contrast, underspeeders and overspeeders offer the potential advantage of extreme sensitivity to analytes with mobilities approximately equal to that of the tracer. In FIGS. 4a-b, we estimate the effective mobility of the LE (MES) to be −17.8×10^−9 m^2V^−1s^−1, and the effective mobilities of MOPS, HEPES, and tricine to be respectively 58%, 41%, and 30% of that value. For the counterspeeder of FIG. 4a, the ratios of analyte-to-LE zone intensities are similar to the effective mobility ratios for MOPS, HEPES, and tricine (I/IL values of 0.69, 0.51, and 0.34, respectively). […]

## CC(=O)O [Acetic acid]
[1]
  fully-ionized Mobility · 10^9: (−1, 42.4) m^2V^−1s^−1

## [Ba+2].[OH-].[OH-] [Ba(OH)2]
[1]
  fully-ionized Mobility · 10^9: (+2 ,66) m^2V^−1s^−1

## Cl [Chloride]
[1]
  fully-ionized Mobility · 10^9: (−1, 79.1) m^2V^−1s^−1

## O=S(=O)(O)CCN1CCN(CCO)CC1 [HEPES, 2-[4-(2-hydroxyethyl)piperazin-1-yl]ethanesulfonic acid]
[2]
  effective mobility relative to that of the LE (MES): 41%
[1]
  fully-ionized Mobility · 10^9: (−1, 21.8) m^2V^−1s^−1

## O=S(=O)(O)CCCN1CCOCC1 [MOPS, 3-morpholinopropane-1-sulfonic acid]
[2]
  effective mobility relative to that of the LE (MES): 58%

## O=C(O)CNC(CO)(CO)CO [Tricine, N-(2-Hydroxy-1,1-bis(hydroxymethyl)ethyl)glycine]
[2]
  effective mobility relative to that of the LE (MES): 30%
[1]
  fully-ionized Mobility · 10^9: (−1, 26.6) m^2V^−1s^−1

## NC(CO)(CO)CO [Tris, 2-Amino-2-hydroxymethyl-propane-1,3-diol]
[1]
  fully-ionized Mobility · 10^9: (−1, 29.5) m^2V^−1s^−1
